This note sets out measurements from patent publication US8030286B2, “Methods and means for increasing resistance to cell damage” (University of Medicine and Dentistry of New Jersey, priority 2004, dated 2011).

One experiment concerns eEF2 kinase+/+ MEFs. The experiment is described as follows: MTT viability assay, wild type MEFs. The format is cell-based, mouse. The procedure: (§1) MTT Survival Assay: MEFs used in this study (2×10^3 cells per well of a 96 well plate) are incubated in the presence of indicated drugs for 24 hours. Cell viability is determined using the standard MTT assay^30. Each experiment is repeated three times for each drug and each cell line using three parallel wells for each drug concentration. For colony formation assay cells are treated with indicated drugs for 24 hours and replated with complete DMEM at low density (500 cells per well in 6-well plate) in duplicate. After 10 days colonies are stained with 10 mg/ml methylene blue (Sigma Inc.) in 50% methanol.
(§2) The possible correlation between activation of eEF2 kinase and the resultant phosphorylation of eEF2 and Ca^2+ ionophore-induced cell death is addressed by comparing the viability of wild type and eEF2 kinase knockout mouse embryonic fibroblasts (MEFs) after incubation of each with different concentrations of ionomycin.
(In general: Formazan colour is commonly taken as a measure of viable cells.)

A further experiment deals with eEF2 kinase−/− MEFs. The experiment is described as follows: MTT viability assay, eEF2 kinase knockout MEFs. The format is cell-based, mouse. As for the experimental part:
as §1, §2

The subject of the next experiment is eEF2K-deficient cells. As to the kind of experiment: Cell death in phase-contrast images, eEF2K-deficient MEFs. Conditions: 1.6 μM doxorubicin, 24 hours. The format is cell-based, mouse.
Experiment [1] has as its system wild type mouse embryonic fibroblasts (MEFs). As to the kind of experiment: Cell death in phase-contrast images, wild type MEFs. To be noted: 1.6 μM doxorubicin, 24 hours. The format is cell-based.

Structures are written as SMILES.

Consider `Cc1ccc(C(=O)Cn2c3c(sc2=N)CCCC3)cc1` [PFTα, pifithrin α], for which the “effect of p53 inactivation on drug sensitivity (DOX)” value is given as “strongly decreasing sensitivity” with eEF2 kinase+/+ MEFs (DOX 24 h, MTT assay) and “only slightly affected” in the experiment with eEF2 kinase−/− MEFs (DOX 24 h, MTT assay).
As to `COc1cccc2c1C(=O)c1c(O)c3c(c(O)c1C2=O)C[C@@](O)(C(=O)CO)C[C@@H]3O[C@H]1C[C@H](N)[C@H](O)[C@H](C)O1` [doxorubicin], the cell death entry is given as “much less cell death” in the experiment on eEF2K-deficient cells and “significant cell death” in experiment [1].
`C[C@H](CCC(=O)O)C[C@H](C)C[C@H](C)C(=O)/C=C(\O)[C@H](C)C[C@H](C)C/C=C/[C@@H](C)[C@@H](O)[C@@H](C)[C@@H](O)C[C@@H]1CC[C@@](C)([C@H]2CC[C@@](C)([C@@H](C)O)O2)O1` [ionomycin]: the cells die result in the experiment with eEF2 kinase+/+ MEFs (10 μM ionomycin, incubation for 24 h) was “approximately 70%”. For the same molecule, the cell viability entry with eEF2 kinase+/+ MEFs (increasing concentrations of ionomycin from 1 to 10 μM, 24 h) is “progressive decrease of cell viability”. In addition, the “effect on the viability” value with eEF2 kinase−/− MEFs (same concentrations of ionomycin (1 to 10 μM), 24 h) was “virtually no effect”.
